Here are results for 1 compound from patent US6632793B1, “Immunological activity for a peptide of the limulus anti-LPS factor” (Centro de Ingenieria Genetica y Biotecnologia, priority 1997, dated 2003).

In test [1] the test system is cytokine mRNA in human PBMCs. The test is described as follows: Cytokine gene expression in human PBMCs by Ribonuclease Protection Assay (hck-1 probe set). The format is cell-based. To be noted: 5 μM for 18 hours; FIG. 8. Here is the method:
The Ribonuclease Protection Assay (RPA) is a highly sensitive and specific method for the detection, quantification and characterization of RNA molecules (Gilman^32, M. In Current Protocols in Molecular Biology. J. Wiley and Sons, New York, p. 4.7.1-7.7.8. 1988 and Dent^33, A. L., Shaffer, A. L., Yu […]., 1997. Cytokine expression and germinal center formation by Bcl-2. […] Samples of total RNA from stimulated and nonstimulated human PBMCs were analyzed for distinct mRNA species by PharMingen's RiboQuantTM. Multi-Probe Ribonuclease Protection Assay System with the hck-1 probe template set (Cat. No. 45031P) which including mRNA species analyses for a different cytokine eg. (IL-5, IL-4, IL-10, IL-15, IL-9, IL-2, IL-13, IFN-γ). […] The identity and quantity of each mRNA species in the original RNA sample can then be determined based on the signal intensities given by the appropriately sized of protected probe fragment bands. Unprotected probe set and a probe for housekeeping gene transcripts are incorporating in order to identify and quantify the RNA molecules in the original samples. […] FIG 8: Samples of total RNA from stimulated human PBMCs with 5 μM of peptide for 18 hours were analyzed for distinct mRNA species by using […] […]

Test [2] relates to TNF-α in peritoneal macrophages. The test is described as follows: TNF-α production in LPS-activated peritoneal macrophages pre-incubated with peptide. The format is cell-based, Balb/c mice. The settings on record: 5 μM pre-incubation 18 h, then LPS 1 μg/ml; 1-24 h; FIG. 6. On the procedure:
Peritoneal elicited cells were obtained from Balb/c mice (CENPALAB, Havana, Cuba). Primary mouse macrophages was collected from the peritoneal cavity 4 days after intraperitoneal injection with 1 ml of 4% Brewer's thioglicollate broth. Cell were maintained in RPMI 1640 supplemented with 10% heat-inactivated fetal bovine serum, 2 mM L-glutamine, 200 units/ml penicillin, and 200 μg/ml streptomycin at 37° C. in 5% CO2/[…].
TNF-α assay: Cells were plated in 96-well plates at 2×10^6 cells/ml in 200 μl of medium and incubated at 37° C. for 2 h. Non-adherent cells were removed by repeated washing with PBS. Macrophages were pre-incubated with 5 μM of LALF peptide during 18 h, afterward were washed with RPMI medium in order to eliminate the peptide. Then macrophages were treated with LPS of E. coli 0111:B4, Sigma (1 μg/ml). TNF-α was determined in supematants from cultured cells at the time 1 h, 2 h, 4 h, 6 h and 24 h used a kit of ELISA kindly provided by [Dr. W. Buurman Univ. Hosp. Maastrich, Netherlands].
FIG. 6: Regulatory effect of LALF derived-peptide on TNF-α production in stimulated peritoneal macrophages. The macrophages were pretreated with 5 μM of LALF peptide during 18 hours and then the cells were activated with 1 μg of E. coli LPS. TNF-α was measured in the cells cultured supernatants at different time.

The subject of test [3] is bovine enterovirus on cell line MDBK. Put plainly: Antiviral effect: inhibition of the cytopathic effect of bovine enterovirus on cell line MDBK. The format is cell-based. To be noted: 10 μM, 20 μM and 40 μM; FIG. 5. On the procedure: Determination of the antiviral activity was estimate by means of the inhibition of the cytopathic effect produced by a virus on cell line MDBK, essentially as is described in the example 1. The cells used in this approach were MDBK a kidney normal bovine cells line [ATCC No. 6071], which are infected with […] of bovine enterovirus. Increasing quantities of LALF peptide were used in order to induced protection in the-cells: 10 μM, 20 μM and 40 μM. In this case serial dilution's of human α-IFN 70 000 IU/ml (MRI, Freeze-dried Reference Human Recombinant Alpha Interferon) was used as standard in order to define unit of antiviral activity. One unit of antiviral activity is defining as the quantity of IFN able to produce a 50% inhibition of the viral replication.
The cells were treated with increasing quantities of peptide during 18 hours. Afterwards, the cells were challenged with a bovine enterovirus. Antiviral activity is referred as U/ml α-IFN.
In general terms: Cytopathic effects are the visible damage that an infection or toxin causes in cultured cells.

For test [4], the system named is TNF-α in mouse serum. Put plainly: Serum TNF after P. aeruginosa challenge in peptide-treated mice (ELISA). The format is in vivo, mice BalB/c. The settings on record: 14 μg i.p. 20 h before P. aeruginosa; 0-240 min; FIG. 4. Background: ELISA stands for enzyme-linked immunosorbent assay.
Protocol: Groups of mice received LALF peptide (14 μg/0.1 ml) or saline control (0.1 ml) intraperitoneally 20 hours prior to infectious challenge. […] Blood was collected for TNF quantification from the retroorbital sinus at the time 0, 20, 40, 60, 90, 120, 180, 240 min in the control group and peptide treated-mice. The concentration of TNF-α in mouse serum was determined using a specific ELISA kindly provided by.
Eight-week-old mice were injected i.p. with 14 μg of peptide in 0.1 ml saline or saline alone. Twenty hours after the mice were injected i.p. with a lethal doses of P. aeruginosa. At 0, 20, 40, 60, 90, 120, 180 and 240 min following the challenge, the mice were bled from the retroorbital sinus and the serum concentration of TNF was measured.
In test [5] the test system is TNFα from human mononuclear cells. Put plainly: TNF-α synthesis by human mononuclear cells (ELISA of supernatant). The format is cell-based. The settings on record: for TNF - α: 18 h, mean of three donors. Here is the method: Venous blood was obtained from healthy volunteers and Ficoll-Hypaque centrifugation, fractionated mononuclear cells. The mononuclear cells were washed and resuspended in endotoxic-free RPMI 1640 medium supplemented with 10% fetal calf serum. 30×10^6 cells were aliquoted into plates p-60 (Nunc, Denmark). The cells were incubated with 14 or 28 μg/ml LALF at 37° C. for 18 hours in 5% CO2 and then centrifuged at 3000 rpm during 5 min. The synthesis of TNFα in the supernatant was determined by specific enzyme-linked immunoadsorbent assay (ELISA), kindly provided by Dr. W. Buurman (University Hospital Maastrich, The Netherlands).

The structures appear in SMILES notation. Where a SMILES comes first, the peptide text is derived from it.

For `CC[C@H](C)[C@H](NC(=O)[C@H](CCCNC(=N)N)NC(=O)[C@H](Cc1ccc(O)cc1)NC(=O)[C@H](Cc1c[nH]cn1)NC(=O)[C@@H](N)CS)C(=O)N[C@@H](CCCCN)C(=O)N1CCC[C@H]1C(=O)N[C@H](C(=O)N[C@@H](Cc1ccccc1)C(=O)N[C@@H](CCCNC(=N)N)C(=O)N[C@@H](CCCNC(=N)N)C(=O)N[C@@H](CC(C)C)C(=O)N[C@@H](CCCCN)C(=O)N[C@@H](Cc1c[nH]c2ccccc12)C(=O)N[C@@H](CCCCN)C(=O)N[C@@H](Cc1ccc(O)cc1)C(=O)N[C@@H](CCCCN)C(=O)NCC(=O)N[C@@H](CCCCN)C(=O)N[C@@H](Cc1ccccc1)C(=O)N[C@@H](Cc1c[nH]c2ccccc12)C(=O)N[C@@H](CS)C(=O)O)[C@@H](C)O` [LALF] (H-CHYRIKPTFRRLKWKYKGKFWC-OH), in test [1], the “Cytokine gene expression in human PBMCs (in words)” value is “able to preferentially induce IFN-γ, IL-2 and IL-13 gene expression”. Also, the “TNF levels in LPS-activated macrophages (in words)” value in test [2] is reported as “down regulated”. The “Protection of cell line MDBK against bovine enterovirus (in words)” value in test [3] is on record as “able to induce protection in the cell line MDBK in a doses dependent manner”. Moreover, the “Effect on systemic TNF after bacterial challenge (in words)” value in test [4] is “induced a decrease of the proinflammatory cytokine TNF”. The “TNF - α” value in test [5] (14 μg/ml) amounted to 0.84 ng/mL; in test [5] (28 μg/ml) it was 0.80 ng/mL. The “TNF-α levels versus control buffer treated cells (in words)” value in test [5] (14-28 μg/ml alone) was “did not induce increased levels of TNF-α over the control buffer treated cells”.
